Assay results: patent publication US20120115896A1, “ISOGENIC HUMAN CELL LINES COMPRISING MUTATED CANCER ALLELES AND PROCESS USING THE CELL LINES” (priority 2008, published 2012)
Like-named read-outs stand apart in the source and are kept apart here.

Legend:
[1] = system: hTERT-HME1 DKI cells carrying PIK3CA (H1047R) and EGFR (delE746-A750)
[2] = system: hTERT-HME1 cells carrying EGFR (delE746-A750) KI
[3] = system: hTERT-HME1 cells carrying PIK3CA (E545K and H1047R) KI
[4] = system: hTERT-HME1 cells carrying KRAS (G13D) KI
[5] = system: hTERT-HME1 cells carrying BRAF (V600E) KI
[6] = system: hTERT-HME1 cells carrying KRAS (G13D) KI; experiment: Drug assay: cell viability by ATP content (96 h), KI versus parental cells; ΔKI pharmarray analysis
[7] = system: hTERT-HME1 DKI cells carrying PIK3CA (H1047R) and EGFR (delE746-A750); experiment: Drug assay: cell viability by ATP content (96 h), DKI versus parental cells; ΔKI pharmarray analysis
[8] = system: hTERT-HME1 cells carrying EGFR (delE746-A750) KI; experiment: Drug assay: cell viability by ATP content (CellTiter-Glo, 96 h), KI versus parental cells; ΔKI pharmarray analysis
[9] = system: hTERT-HME1 cells carrying PIK3CA (E545K and H1047R) KI; experiment: Drug assay: cell viability by ATP content (96 h) and Hoechst/propidium iodide staining, KI versus parental cells; ΔKI pharmarray analysis
[10] = system: hTERT-HME1 cells carrying BRAF (V600E) KI; experiment: Drug assay: cell viability by ATP content (96 h), KI versus parental cells; ΔKI pharmarray analysis

## Oc1cccc(-c2nc(N3CCOCC3)c3oc4ncccc4c3n2)c1 [PI-103]
[1]; Log(M) −6.00
  ΔKI PIK3CA + EGFR: 0
[1]; Log(M) −7.00
  ΔKI PIK3CA + EGFR: 0
[1]; Log(M) −8.00
  ΔKI PIK3CA + EGFR: 0
[2]; Log(M) −6.00
  ΔKI EGFR: 3.9
[2]; Log(M) −7.00
  ΔKI EGFR: 0
[2]; Log(M) −8.00
  ΔKI EGFR: 0
[3]; Log(M) −6.00
  ΔKI PIK3CA: 0
[3]; Log(M) −7.00
  ΔKI PIK3CA: 0
[3]; Log(M) −8.00
  ΔKI PIK3CA: 0
[4]; Log(M) −6.00
  ΔKI KRAS: 0
[4]; Log(M) −7.00
  ΔKI KRAS: 0
[4]; Log(M) −8.00
  ΔKI KRAS: 0
[5]; Log(M) −6.00
  ΔKI BRAF: 0
[5]; Log(M) −7.00
  ΔKI BRAF: 0
[5]; Log(M) −8.00
  ΔKI BRAF: 0

## CCCn1c(C)c(C(=O)c2cccc3ccccc23)c2ccccc21 [JWH-015]
[6]
  ΔKI KRAS: 0
[6]; Log(M) −3.55
  ΔKI KRAS: 0
[7]
  ΔKI PIK3CA + EGFR: 0
[7]; Log(M) −3.55
  ΔKI PIK3CA + EGFR: 0
[8]
  ΔKI EGFR: 0
[8]; Log(M) −3.55
  ΔKI EGFR: 0
[9]
  ΔKI PIK3CA: 0
[9]; Log(M) −3.55
  ΔKI PIK3CA: 0
[10]
  ΔKI BRAF: 0
[10]; Log(M) −3.55
  ΔKI BRAF: 0

## O=C1C[C@@H](c2ccc(O)cc2)Oc2cc(O)cc(O)c21 [Naringenin]
[1]; Log(M) −3.05
  ΔKI PIK3CA + EGFR: 0
[1]; Log(M) −3.52
  ΔKI PIK3CA + EGFR: 0
[1]; Log(M) −4.00
  ΔKI PIK3CA + EGFR: 0
[2]; Log(M) −3.05
  ΔKI EGFR: 0
[2]; Log(M) −3.52
  ΔKI EGFR: 0
[2]; Log(M) −4.00
  ΔKI EGFR: 0
[3]; Log(M) −3.05
  ΔKI PIK3CA: 0
[3]; Log(M) −3.52
  ΔKI PIK3CA: 0
[3]; Log(M) −4.00
  ΔKI PIK3CA: 0
[4]; Log(M) −3.05
  ΔKI KRAS: 0
[4]; Log(M) −3.52
  ΔKI KRAS: 0
[4]; Log(M) −4.00
  ΔKI KRAS: 0
[5]; Log(M) −3.05
  ΔKI BRAF: −0.08
[5]; Log(M) −3.52
  ΔKI BRAF: 0
[5]; Log(M) −4.00
  ΔKI BRAF: −1.5

## CC(C)c1c(C(=O)Nc2ccccc2)c(-c2ccccc2)c(-c2ccc(F)cc2)n1CC[C@@H](O)C[C@@H](O)CC(=O)[O-].CC(C)c1c(C(=O)Nc2ccccc2)c(-c2ccccc2)c(-c2ccc(F)cc2)n1CC[C@@H](O)C[C@@H](O)CC(=O)[O-].[Ca+2] [Atorvastatin Ca]
[6]; Log(M) −5.25
  ΔKI KRAS: 0
[6]; Log(M) −5.85
  ΔKI KRAS: 0
[6]; Log(M) −6.46
  ΔKI KRAS: 0
[7]; Log(M) −5.25
  ΔKI PIK3CA + EGFR: 0
[7]; Log(M) −5.85
  ΔKI PIK3CA + EGFR: 0
[7]; Log(M) −6.46
  ΔKI PIK3CA + EGFR: 0
[8]; Log(M) −5.25
  ΔKI EGFR: 0
[8]; Log(M) −5.85
  ΔKI EGFR: 0
[8]; Log(M) −6.46
  ΔKI EGFR: 0
[9]; Log(M) −5.25
  ΔKI PIK3CA: 0
[9]; Log(M) −5.85
  ΔKI PIK3CA: 9.44
[9]; Log(M) −6.46
  ΔKI PIK3CA: 0
[10]; Log(M) −5.25
  ΔKI BRAF: 0
[10]; Log(M) −5.85
  ΔKI BRAF: −2.6
[10]; Log(M) −6.46
  ΔKI BRAF: 0

## CO[C@H]1C[C@@H]2CC[C@@H](C)[C@@](O)(O2)C(=O)C(=O)N2CCCC[C@H]2C(=O)O[C@H]([C@H](C)C[C@@H]2CC[C@@H](O)[C@H](OC)C2)CC(=O)[C@H](C)/C=C(\C)[C@@H](O)[C@@H](OC)C(=O)[C@H](C)C[C@H](C)/C=C/C=C/C=C/1C [rapamycin, Rapamycin]
[1]; Log(M) −5.40
  ΔKI PIK3CA + EGFR: 1.22
[1]; Log(M) −6.40
  ΔKI PIK3CA + EGFR: 0
[1]; Log(M) −7.40
  ΔKI PIK3CA + EGFR: 1.6
[1]; Log(M) −8.40
  ΔKI PIK3CA + EGFR: 0
[1]; Log(M) −9.40
  ΔKI PIK3CA + EGFR: 0.66
[1]; Log(M) −10.40
  ΔKI PIK3CA + EGFR: 0

## CC[C@H](C)C(=O)O[C@H]1C[C@H](O)C=C2C=C[C@H](C)[C@H](CC[C@@H](O)C[C@@H](O)CC(=O)[O-])[C@H]21.[Na+] [Pravastatin Na]
[6]; Log(M) −4.32
  ΔKI KRAS: 0
[6]; Log(M) −4.92
  ΔKI KRAS: 0
[6]; Log(M) −5.52
  ΔKI KRAS: 0
[7]; Log(M) −4.32
  ΔKI PIK3CA + EGFR: 0
[7]; Log(M) −4.92
  ΔKI PIK3CA + EGFR: 0
[7]; Log(M) −5.52
  ΔKI PIK3CA + EGFR: 0
[8]; Log(M) −4.32
  ΔKI EGFR: 0
[8]; Log(M) −4.92
  ΔKI EGFR: 0
[8]; Log(M) −5.52
  ΔKI EGFR: 0
[9]; Log(M) −4.32
  ΔKI PIK3CA: 0
[9]; Log(M) −5.52
  ΔKI PIK3CA: 0
[10]; Log(M) −4.32
  ΔKI BRAF: 0
[10]; Log(M) −4.92
  ΔKI BRAF: 0
[10]; Log(M) −5.52
  ΔKI BRAF: 0

## O=c1cc(N2CCOCC2)oc2c(-c3ccccc3)cccc12 [LY294002, LY 294002]
[3]; Log(M) −5.10
  ΔKI PIK3CA: 3.62
